Results reported in patent US4113957A, “1-Substituted pyrazoles” (Bayer Aktiengesellschaft, priority 1975, dated 1978).

System: venous thrombs (left jugular vein)
Test: Antithrombotic action: thromb formation in supercooled jugular vein of rats
Type: in vivo
Settings: Rattus norvegicus, po, 10 mg/kg orally, reduction of thromb size vs control, after 4 hours
Experimental: The left jugular vein of rats weighing 170 to 180 g was exposed under ether narcosis and supercooled to -12° C. for 2 minutes to stimulate thromb formation. The thromb was isolated from the vein 4 hours later, and was weighed. The test animals were given the test preparation in tragacanth mucilage immediately before supercooling the wall of the blood vessel. As a result, the protective antithrombotic activity was tested in the first 4 hours after stimulating thromb formation.

Cc1cc(OC(=O)c2ccco2)n(CCOc2ccc3ccccc3c2)n1 [Example 20, 5-(Furyl-(2)-carbonyloxy)-3-methyl-1-(2-(β-naphthyloxy)-ethyl)-pyrazole]
inhibition at 10 mg/kg: 61%
